# Entries after “also recorded” stand apart in the source; their conditions may differ.
# Legend:
# human TGR5 = biological target: T1, human TGR5 (Homo sapiens, UniProt Q8TDU6); test: Luciferase reporter assay for human TGR5 activation in HEK293T cells overexpressing human TGR5; assay type: cell-based; details: for TGR5 activation: HEK293T cells overexpressing human TGR5, luminescence readout; for EC50: HEK293T cells overexpressing human TGR5
# T1 construct: expressed in transfected cells; host or cells: HEK293T
# T1 sequence (Q8TDU6 1-330): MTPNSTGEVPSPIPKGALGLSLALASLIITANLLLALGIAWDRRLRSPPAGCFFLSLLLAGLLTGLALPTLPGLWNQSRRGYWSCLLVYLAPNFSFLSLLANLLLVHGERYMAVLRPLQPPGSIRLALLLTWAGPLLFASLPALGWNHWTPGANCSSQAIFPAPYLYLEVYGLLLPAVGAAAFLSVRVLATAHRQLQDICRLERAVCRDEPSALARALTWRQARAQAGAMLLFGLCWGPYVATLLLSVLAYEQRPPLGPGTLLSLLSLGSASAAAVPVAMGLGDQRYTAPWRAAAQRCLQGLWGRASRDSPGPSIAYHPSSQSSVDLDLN
# Experimental: Human TGR5 was overexpressed in HEK93T cells along with a luciferase-based TGR5 reporter plasmid. Cells were then incubated with different concentrations of compounds overnight, and TGR5 activation was measured as a luminescence readout.
# Plasmids and transient transfections. Human TGR5 was cloned using cDNA from human Caco-2 cells as template and a forward primer with an EcoRIrestriction-site (5′-[…]-3′) and a reverse primer with a XhoI-site (5′-[…]-3′). The PCR product was cloned into the pCDNA 3.1+plasmid (Promega Corporation, Madison, Wis.) and transfected at a concentration of 0.4 μg/ml of media. For luciferase reporter assays for TGR5 activation, the pGL4.29[luc2P/CRE/Hygro] plasmid (Promega Corporation), and the pGL4.74[hRluc/CMV] plasmid (Promega Corporation) were used at concentration of 2 μg/ml and 0.05 μg/ml of media respectively. All plasmids were transfected using Opti-MEM (Gibco) and Lipofectamine 2000 (Invitrogen, Life Technologies, Grand Island, N.Y., USA) according to manufacturer's instructions. Plasmid transfection were performed in antibiotic-free media (MEM for HEK293T and RPMI for Matrigel-attached NCI-H716 cells) with 10% FBS. After overnight incubation, compounds were added in complete media and incubated overnight. Cells were harvested the next day for luciferase assay.
# Luciferase reporter assay. Luminescence was measured using the Dual-Luciferase Reporter Assay System (Promega Corporation) according to manufacturer's instructions. Cells were washed gently with PBS and lysed in PLB from the kit. Matrigel-attached cells were scraped in PLB. Luminescence was measured using the SpectraMax M5 plate reader (Molecular Devices, San Jose, Calif.) at the ICCB-Longwood Screening Facility at Harvard Medical School. Luminescence was normalized to Renilla luciferase activity and percentage relative luminescence was calculated compared to DMSO control.
# Caco-2 cells = test: Caco-2 cell viability assay (CellTiter-Glo, ATP luminescence); assay type: cell-based; details: concentrations up to 3 mM
# Experimental: Compounds were also tested for toxicity using Caco-2 cells, a human intestinal epithelial cancer cell line. Caco-2 cells were incubated with compounds for 16 hours and cell death was determined using a luminescence assay measuring ATP levels as a readout for cell viability.
# Cell viability assay. Caco-2 cells were treated with compounds diluted in DMSO in complete MEM media. The concentration of DMSO was kept constant and used as a negative control. Cells were incubated with compounds overnight at 37° C. in an atmosphere of 5% CO2. The next day, cell viability was measured using CellTiter-Glo Luminescent Cell Viability Assay from Promega Corporation according to manufacturer's instructions. Luminescence was measured using the SpectraMax M5 plate reader (Molecular Devices, San Jose, Calif.) at the ICCB-Longwood Screening Facility at Harvard Medical School. Luminescence was normalized to DMSO control and percentage relative luminescence was calculated compared to DMSO control.
# NCI-H716 cells [1] = test: GLP-1 synthesis and secretion in NCI-H716 cells; assay type: cell-based, human; details: for GLP-1 secretion by CA7S extracted from cecal contents of SG mice: 500 μM; for GLP-1 secretion by CA7S extracted from cecal contents of SG mice / total GLP-1 (GLP-1 synthesis): vs DMSO control; for GLP-1 secretion: in vitro; for total GLP-1 (GLP-1 synthesis): media + cell lysates
# Experimental: GLP-1 synthesis and secretion were measured in matrigel-polarized NCI-H716 cells. […] (FIG. 28B)
# Treatment with compounds. […] The cells were allowed to grow for 2 days in complete RPMI media. […] The concentration of DMSO was kept constant throughout the treatments and used as a negative control. Cells were incubated at 37° C. in an atmosphere of 5% CO2 for 2 hours. After the incubation period, cell culture media was collected in Eppendorf tubes containing 1% trifluoroacetic acid (TFA, Sigma) in sterile purified water (GenClone) to make a final TFA concentration of 0.1% and frozen at −80° C. for further GLP-1 measurements. Cells on cell culture plates were placed on ice and gently washed with PBS (GenClone). Cells used for GLP-1 measurements were treated with ice-cold cell lysis solution of 1% TFA, 1N hydrochloric acid, 5% formic acid, and 1% NaCl (all from Sigma), scraped off of the Matrigel coating, and collected in 96-well plates for peptide purification. Lysates were stored at −80° C. for further analysis.
# GLP-1 measurement. Total GLP-1 peptide measurements were performed using the GLP-1 EIA Kit (Sigma, Cat. No. RAB0201) according to manufacturer's instructions. Cell culture media and cell lysates were subjected to peptide purification using Sep Pak C18 Classic columns (Waters Corporation, Milford, Mass.). The column was pretreated with a solution of 0.1% TFA in 80% isopropyl alcohol (EMD Millipore) and equilibrated with 0.1% TFA in water. Cell culture media and cell lysates were loaded onto the column and washed with […]. The peptides were eluted in […]. The eluate was concentrated by drying under vacuum and resuspended in 0.1% TFA in water. 0.1% TFA in water was used as ‘blank’ for cell culture media and purified cell lysate ELISAs. Excess samples were stored at −80° C. for later analyses. Total GLP-1 amounts in the cell culture media (secreted) and cell lysates were calculated using a standard curve provided in the EIA kit.
# DIO mice = test: Acute treatment of DIO mice via duodenal and rectal catheters: GLP-1 and blood glucose; assay type: in vivo, mouse; details: HFD-fed (DIO) mice, 1 mg, vs PBS; for systemic GLP-1 levels in vivo: within 15 minutes
# Experimental: Next, the ability of CA7S to stimulate GLP-1 secretion and improve hyperglycemia in vivo was evaluated. DIO mice were treated with either CA7S or PBS via duodenal and rectal catheters (FIG. 17A).
# NCI-H716 cells [2] = test: Intracellular calcium levels in NCI-H716 cells (L-cells); assay type: cell-based, human; details: NCI-H716 cells (L-cells) in vitro
# [3] = Stability after incubation in buffer at physiological pHs (UPLC-MS); assay type: physicochemical; details: 37° C. in buffer at physiological pHs
# [4] = listed as Cholic acid 7-sulfate
# [5] = listed as cholic acid 7-sulfate
# [6] = HFD-fed mice, acute cholic acid 7-sulfate treatment
structure (smiles),measurement,setting,value
"C[C@H](CCC(=O)O)[C@H]1CC[C@H]2[C@@H]3[C@H](OS(=O)(=O)O)C[C@@H]4C[C@H](O)CC[C@]4(C)[C@H]3C[C@H](O)[C@]12C [CA7S, cholic acid 7-sulfate]",TGR5 activation,human TGR5,activated human TGR5 in a dose-dependent manner
same,TGR5 activation,human TGR5; [4],induces TGR5 activation
same,viability of Caco-2 cells,Caco-2 cells,does not affect the viability
same,viability of Caco-2 cells,Caco-2 cells; [4],no toxicity
same,GLP-1 secretion by CA7S extracted from cecal contents of SG mice,NCI-H716 cells [1],also induced GLP-1 secretion in vitro
same,GLP-1 secretion by CA7S extracted from cecal contents of SG mice,NCI-H716 cells [1]; [5],exhibit activity inducing GLP-1 secretion
same,GLP-1 secretion after siRNA-mediated knockdown of TGR5,NCI-H716 cells [1],abolished
same,GLP-1 secretion after siRNA-mediated knockdown of TGR5,NCI-H716 cells [1]; [5],abolished GLP-1 secretion
same,GLP-1 secretion,NCI-H716 cells [1],induced GLP-1 secretion to a similar degree as TDCA in a dose-dependent manner
same,GLP-1 secretion,NCI-H716 cells [1]; [4],induces GLP-1 secretion in vitro better than the known GLP-1 inducer TDCA
same,blood glucose levels in vivo,DIO mice; within 15 min,reduced blood glucose levels
same,systemic GLP-1 levels in vivo,DIO mice,increased systemic GLP-1 levels
same,systemic GLP-1 levels in vivo,DIO mice; [5],induced GLP-1 levels
same,"Cholic acid 7-sulfate concentration (mean ± SEM), Cecum",[6],2577 ± 185.3 pmol/mg
same,"Cholic acid 7-sulfate concentration (mean ± SEM), Hepatic portal vein",[6],6.128 ± 2.111 pmol/mg
same,"CA7S in cecal contents, on average","administration of 1 mg, duodenal and rectal catheters",2500 pmol/mg wet mass
same,cholic acid 7-sulfate in the cecum,dosing with 1 mg,~2500 µM
same,amounts in systemic circulation and portal vein (gut restriction),"ectopic introduction in mice, listed as cholic acid 7-sulfate",only minor amounts
same,intracellular calcium levels,NCI-H716 cells [2],dose-dependent increase in calcium levels
same,intracellular calcium levels,NCI-H716 cells [2]; [4],increased calcium levels
same,pH stability,[3],stable at physiological pHs
same,pH stability,[3]; [4],stable in a wide range of pHs
"C[C@H](CCC(=O)O)[C@H]1CC[C@H]2[C@@H]3[C@H](O)C[C@@H]4C[C@H](O)CC[C@]4(C)[C@H]3C[C@H](O)[C@]12C [CA, cholic acid]",GLP-1 secretion,NCI-H716 cells [1],had no effect on GLP-1 secretion
same,GLP-1 secretion,NCI-H716 cells [1]; listed as cholic acid,had no effect
C[C@H](CCC(=O)O)[C@H]1CC[C@H]2[C@@H]3[C@H](NS(=O)(=O)O)C[C@@H]4C[C@H](O)CC[C@]4(C)[C@H]3C[C@H](O)[C@]12C [Compound 1],EC50,human TGR5,2400 nM
same,TGR5 activation,human TGR5,induced TGR5 activation in a dose-dependent manner; also recorded: activate TGR5
same,GLP-1 secretion,NCI-H716 cells [1],induce GLP-1 synthesis and secretion
same,total GLP-1 (GLP-1 synthesis),NCI-H716 cells [1],increased total GLP-1; also recorded: induce GLP-1 synthesis and secretion
C[C@H](CCC(=O)O)[C@H]1CC[C@H]2[C@@H]3[C@H](NS(=O)(=O)O)C[C@@H]4C[C@H](O)CC[C@]4(C)[C@H]3CC[C@]12C [Compound 2],EC50,human TGR5,1700 nM
same,TGR5 activation,human TGR5,induced TGR5 activation in a dose-dependent manner; also recorded: activate TGR5
same,GLP-1 secretion,NCI-H716 cells [1],induced GLP-1 secretion; also recorded: induce GLP-1 synthesis and secretion
same,total GLP-1 (GLP-1 synthesis),NCI-H716 cells [1],increased total GLP-1; also recorded: induce GLP-1 synthesis and secretion
C[C@H](CCC(=O)O)[C@H]1CC[C@H]2[C@@H]3[C@H](NS(=O)(=O)O)[C@H](O)[C@@H]4C[C@H](O)CC[C@]4(C)[C@H]3CC[C@]12C [Compound 3],TGR5 activation,human TGR5,induced TGR5 activation in a dose-dependent manner; also recorded: activate TGR5
same,GLP-1 secretion,NCI-H716 cells [1],induced GLP-1 secretion; also recorded: induce GLP-1 synthesis and secretion
same,total GLP-1 (GLP-1 synthesis),NCI-H716 cells [1],increased total GLP-1; also recorded: induce GLP-1 synthesis and secretion
"C[C@H](CCC(=O)O)[C@H]1CCC2[C@H]3C(CC[C@@]21C)[C@@]1(C)CC[C@@H](O)C[C@H]1C[C@H]3S(=O)(=O)O (stereo partly drawn) [Compound 6, (4R)-4-((3R,5S,7R,8R,10S,13R,17R)-3-hydroxy-10,13-dimethyl-7-sulfohexadecahydro-1H-cyclopenta[a]phenanthren-17-yl)pentanoic acid]",TGR5 activation,human TGR5,induced TGR5 activation in a dose-dependent manner; also recorded: activated TGR5
same,GLP-1 secretion,NCI-H716 cells [1],induced an increase in GLP-1 synthesis and secretion
same,total GLP-1 (GLP-1 synthesis),NCI-H716 cells [1],increased total GLP-1; also recorded: induced an increase in GLP-1 synthesis and secretion
"C[C@H](CCC(=O)NCCS(=O)(=O)O)[C@H]1CC[C@H]2[C@@H]3CC[C@@H]4C[C@H](O)CC[C@]4(C)[C@H]3C[C@H](O)[C@]12C [TDCA, tauro-deoxycholic acid]",GLP-1 secretion after siRNA-mediated knockdown of TGR5,NCI-H716 cells [1],abolished
